Measurements as given in PubChem BioAssay (NCI).
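Exposure lasted 48 hours, with cells grown in 96-well plates and compounds tested at five concentrations. TGI denotes the concentration required for complete inhibition of growth.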

What was measured:
Experiment in all cases: NCI tumour cell line growth inhibition, 48 h
[1] = test system: DMS 273 small cell lung
[2] = test system: DLD-1 colon
[3] = test system: LXFL 529 NSCLC
[4] = test system: XF 498 CNS
[5] = test system: DMS 114 small cell lung
[6] = test system: HOP-18 NSCLC
[7] = test system: RXF-631 renal
[8] = test system: BT-549 breast
[9] = test system: M19-MEL melanoma

Question: What does the source list for `Cn1c2c(c3ccccc31)CCN(CCN1CCN(c3ccccc3)CC1)C2=O`?
Answer: TGI [1]: > 100 µM; TGI [2]: > 100 µM; TGI [3]: > 100 µM; TGI [4]: 61.3 µM; TGI [5]: > 100 µM; TGI [6]: > 100 µM; TGI [7]: > 100 µM

Question: `CC(C)c1nc2cc(C(F)(F)F)ccc2[nH]c1=O` was tested. Which TGI [8] did it give?
Answer: > 100 µM

Question: How did the TGI [8] turn out when `Cn1c(N)c(C(N)=O)[nH]c1=S` was run?
Answer: > 100 µM

Question: For `O=C(CC(=O)Nc1cccc(Cl)c1)NNCC(=O)Nc1nnc(-c2ccccc2)s1`, which TGI [9] is on record?
Answer: > 100 µM

Question: And the TGI [1]?
Answer: > 100 µM

Question: What about the TGI [2] of the same molecule?
Answer: > 100 µM

Question: And the TGI [3]?
Answer: > 100 µM

Question: And the TGI [4]?
Answer: 76.3 µM

Question: And the TGI [5]?
Answer: > 100 µM

Question: And the TGI [6]?
Answer: 58.6 µM

Question: And the TGI [7]?
Answer: > 100 µM

Question: Which results are given for `COc1ccc(/C(Cl)=C(/c2ccc(O)cc2)c2ccc(OCCN(C)C)cc2)cc1`?
Answer: TGI [9]: 18.9 µM; TGI [1]: 23.6 µM; TGI [2]: 31 µM; TGI [3]: 22.6 µM; TGI [4]: 10.3 µM; TGI [5]: 19.3 µM; TGI [6]: 25 µM; TGI [7]: 36.7 µM

Question: Which TGI [9] does the source give for `Nc1nc(NCCO)c(N=O)c(=O)[nH]1` here?
Answer: > 100 µM

Question: And the TGI [1]?
Answer: > 100 µM

Question: What about the TGI [2] of the same molecule?
Answer: > 100 µM

Question: What about the TGI [3] of the same molecule?
Answer: > 100 µM

Question: What about the TGI [4] of the same molecule?
Answer: > 100 µM

Question: What about the TGI [5] of the same molecule?
Answer: > 100 µM

Question: And the TGI [6]?
Answer: > 100 µM

Question: How did the TGI [8] turn out when `O=C(NCCCCN(CCCNC(=O)C(F)(F)F)Cc1ccc2ccccc2c1)C(F)(F)F` was run?
Answer: 36.5 µM

Question: How did the TGI [8] turn out when `COC(=O)[C@@H]1C=C[C@H](OC2OC(COC(C)=O)C(OC(C)=O)C(OC(C)=O)C2OC(C)=O)n2c(=O)c3ccccc3c(=O)n21` (stereo partly specified) was run?
Answer: 18.2 µM

Question: `COc1cc(-c2cc(=O)c3c(OC)c(OC)c(OC)cc3o2)c(OC)c(OC)c1OC` was tested. Which TGI [8] did it give?
Answer: > 75 µM

Question: Which TGI [8] does the source give for `CN(C)c1ccc(/C=C(\NC(=O)c2ccccc2)C(=O)NCC(=O)O)cc1` here?
Answer: > 100 µM

Question: What does the source list for `NC(=O)C#CC#CC#CCO`?
Answer: TGI [9]: 3.26 µM; TGI [1]: 4.1 µM; TGI [3]: 2.35 µM; TGI [5]: 3.6 µM; TGI [6]: 3.28 µM

Question: With `CCOC(=O)C1C(c2ccc(OC)cc2)c2c([nH]n(-c3ccccc3)c2=O)CC1(O)OCC` (stereo unspecified) as the molecule, how does the TGI [8] read?
Answer: > 100 µM

Question: `CCOc1ccc(NC(=O)C(=O)NO)cc1` was tested. Which TGI [9] did it give?
Answer: > 100 µM

Question: What about the TGI [1] of the same molecule?
Answer: > 100 µM

Question: And the TGI [2]?
Answer: > 100 µM

Question: And the TGI [3]?
Answer: > 100 µM

Question: What about the TGI [5] of the same molecule?
Answer: > 100 µM

Question: And the TGI [6]?
Answer: > 100 µM

Question: Which TGI [8] does the source give for `COc1cc2c(c(O)c1OC)C(O)C1CCC(=O)N1C2c1cccc2ccccc12` (stereo unspecified) here?
Answer: > 100 µM

Question: Which TGI [8] does the source give for `O=S(=O)(O)CCCC1S(=O)(=O)OCCOS1(=O)=O` here?
Answer: > 100 µM

Question: How did the TGI [9] turn out when `O=C1[C@@H]2C(c3ccc(Cl)cc3Cl)=NO[C@@H]2C(=O)N1c1ccc(Cc2ccc(N3C(=O)[C@H]4C(c5ccc(Cl)cc5Cl)=NO[C@H]4C3=O)cc2)cc1` was run?
Answer: > 100 µM

Question: What about the TGI [1] of the same molecule?
Answer: > 100 µM

Question: What about the TGI [2] of the same molecule?
Answer: > 100 µM

Question: What about the TGI [3] of the same molecule?
Answer: 52.2 µM

Question: And the TGI [4]?
Answer: > 100 µM

Question: And the TGI [5]?
Answer: > 100 µM

Question: What about the TGI [6] of the same molecule?
Answer: > 100 µM

Question: Which results are given for `Cc1ccccc1C1OC(=O)c2ccccc21` (stereo unspecified)?
Answer: TGI [9]: > 100 µM; TGI [1]: > 100 µM; TGI [2]: > 100 µM; TGI [3]: > 100 µM; TGI [5]: > 100 µM; TGI [6]: > 100 µM; TGI [7]: > 100 µM

Question: Which TGI [9] does the source give for `CCOC(=O)N1C2C=C(C)C(ON2C(=O)c2ccccc2)C2C(C)C(=O)N21` (stereo unspecified) here?
Answer: > 100 µM

Question: And the TGI [1]?
Answer: > 100 µM

Question: And the TGI [2]?
Answer: > 100 µM

Question: What about the TGI [3] of the same molecule?
Answer: > 100 µM

Question: And the TGI [4]?
Answer: > 100 µM

Question: What about the TGI [5] of the same molecule?
Answer: > 100 µM

Question: What about the TGI [6] of the same molecule?
Answer: > 100 µM

Question: How did the TGI [8] turn out when `COc1ccc(/C=C2\C(=O)N(C)C(=O)c3cc(OC)c(OC)cc32)cc1OC` was run?
Answer: 55.6 µM

Question: Which TGI [8] does the source give for `CC(C)(C)n1c(=O)[nH]n(C2NN=Cc3cccc4cccc2c34)c1=O` (stereo unspecified) here?
Answer: > 100 µM

Question: How did the TGI [8] turn out when `O=C(Nc1nc(C23CC4CC(CC(C4)C2)C3)cs1)c1c(O)c2ccccc2[nH]c1=O` was run?
Answer: > 100 µM

Question: How did the TGI [9] turn out when `NC(=O)c1cccc(C2OC(COP(=O)(O)O)C(O)C2O)c1` (stereo unspecified) was run?
Answer: > 50 µM

Question: And the TGI [1]?
Answer: > 50 µM

Question: And the TGI [2]?
Answer: > 50 µM

Question: What about the TGI [3] of the same molecule?
Answer: > 50 µM

Question: And the TGI [4]?
Answer: > 50 µM

Question: With `O=C1Cc2c([nH]c3c(Cl)cccc23)-c2ccccc2N1` as the molecule, how does the TGI [8] read?
Answer: > 100 µM

Question: How did the TGI [8] turn out when `O=Cc1c2ccccc2n2ccc3c4ccccc4[nH]c3c12` was run?
Answer: > 10 µM

Question: Which TGI [8] does the source give for `CCCN1CC=C(c2cc(C(=O)OCC)[nH]c2-c2cc(C)no2)C1=O` here?
Answer: > 100 µM

Question: `COc1ccc(/C=C/c2sc3ccccc3[n+]2CCCCI)cc1OC` was tested. Which TGI [8] did it give?
Answer: > 10 µM

Question: For `Cn1ccc(C(=O)N2CCSC2=S)c(OCc2ccccc2)c1=O`, which TGI [8] is on record?
Answer: > 100 µM

Question: What does the source list for `Nc1ccc2nc(NCc3ccc(F)cc3)cnc2c1`?
Answer: TGI [1]: > 100 µM; TGI [3]: > 100 µM; TGI [4]: > 100 µM; TGI [5]: > 100 µM

Question: `COC(=O)C1CCOC(C)N1C(=O)OC(C)(C)C` (stereo unspecified) was tested. Which TGI [8] did it give?
Answer: > 100 µM

Question: For `C=[N+](CNC(=O)CNC(=O)C(Cc1ccc([N+](=O)[O-])cc1)NC(=O)OC(C)(C)C)C(=O)CNC(=O)C(Cc1ccc([N+](=O)[O-])cc1)NC(=O)OC(C)(C)C` (stereo unspecified), which TGI [8] is on record?
Answer: 85.5 µM

Question: For `O=C1NC(=O)C(CC(C(=O)C(=O)Nc2ccccc2Cl)C(=O)c2ccc3ccccc3c2)C(=O)N1` (stereo unspecified), which TGI [8] is on record?
Answer: > 100 µM

Question: How did the TGI [8] turn out when `N#CC1Cc2cc3c(cc21)OCO3` (stereo unspecified) was run?
Answer: > 100 µM

Question: With `O=C1CCCC2C(O)CCC[C@H]12` (stereo partly specified) as the molecule, how does the TGI [8] read?
Answer: > 100 µM

Question: `S=C1Cc2c(-c3ccc(Cl)cc3)cc(-c3ccccc3)nc2-c2ccccc2N1` was tested. Which TGI [8] did it give?
Answer: 35 µM

Question: What does the source list for `CCCCCCCc1cc(OC(=O)c2c(C)cc(OC)cc2O)cc(O)c1C(=O)O`?
Answer: TGI [9]: 50.7 µM; TGI [1]: 87.9 µM; TGI [2]: 34.7 µM; TGI [3]: 34 µM; TGI [7]: 63.9 µM

Question: For `O=[N+]([O-])c1ccc(-c2nc3ccc([N+](=O)[O-])cc3[nH]2)cc1`, which TGI [8] is on record?
Answer: 85.7 µM

Question: `N#Cc1n[nH]n(C2CCCCC2)c1=O` was tested. Which TGI [8] did it give?
Answer: > 100 µM

Question: What does the source list for `COc1ccccc1/C=C(\C#N)C(=O)c1ccccc1`?
Answer: TGI [9]: > 100 µM; TGI [1]: > 100 µM; TGI [4]: > 100 µM; TGI [5]: > 100 µM

Question: Which TGI [8] does the source give for `C1=Nc2ccc(cc2)N=Cc2ccc(cc2)OCc2cccc(n2)COc2ccc1cc2` here?
Answer: > 100 µM
